The source made the active and inactive calls.
Assays:
[1] = molecular target: T1, Carboxy-terminal domain RNA polymerase II polypeptide A small phosphatase 1 (Homo sapiens, UniProt Q9GZU7); assay: CTDSP1 inhibitors, concentration-response, biochemical, absorbance readout, ultra-high-throughput screen actives (AID 540297); assay type: functional
T1 sequence (Q9GZU7 whole entry): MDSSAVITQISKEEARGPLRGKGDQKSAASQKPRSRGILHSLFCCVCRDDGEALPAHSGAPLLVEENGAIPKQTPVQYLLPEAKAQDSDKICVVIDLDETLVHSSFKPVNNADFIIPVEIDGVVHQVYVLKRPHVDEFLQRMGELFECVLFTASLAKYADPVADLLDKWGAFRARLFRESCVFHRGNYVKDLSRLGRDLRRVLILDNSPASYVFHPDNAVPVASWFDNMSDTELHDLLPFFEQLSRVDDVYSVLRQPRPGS

[2] = molecular target: Genome polyprotein (dengue virus type 2, UniProt P29990); assay: flavivirus cap methylation enzyme inhibition – biochemical, confirmation dose response, primary screen (AID 588689); assay type: functional
Genome polyprotein, sequence (P29990 2492-3391 limits assumed): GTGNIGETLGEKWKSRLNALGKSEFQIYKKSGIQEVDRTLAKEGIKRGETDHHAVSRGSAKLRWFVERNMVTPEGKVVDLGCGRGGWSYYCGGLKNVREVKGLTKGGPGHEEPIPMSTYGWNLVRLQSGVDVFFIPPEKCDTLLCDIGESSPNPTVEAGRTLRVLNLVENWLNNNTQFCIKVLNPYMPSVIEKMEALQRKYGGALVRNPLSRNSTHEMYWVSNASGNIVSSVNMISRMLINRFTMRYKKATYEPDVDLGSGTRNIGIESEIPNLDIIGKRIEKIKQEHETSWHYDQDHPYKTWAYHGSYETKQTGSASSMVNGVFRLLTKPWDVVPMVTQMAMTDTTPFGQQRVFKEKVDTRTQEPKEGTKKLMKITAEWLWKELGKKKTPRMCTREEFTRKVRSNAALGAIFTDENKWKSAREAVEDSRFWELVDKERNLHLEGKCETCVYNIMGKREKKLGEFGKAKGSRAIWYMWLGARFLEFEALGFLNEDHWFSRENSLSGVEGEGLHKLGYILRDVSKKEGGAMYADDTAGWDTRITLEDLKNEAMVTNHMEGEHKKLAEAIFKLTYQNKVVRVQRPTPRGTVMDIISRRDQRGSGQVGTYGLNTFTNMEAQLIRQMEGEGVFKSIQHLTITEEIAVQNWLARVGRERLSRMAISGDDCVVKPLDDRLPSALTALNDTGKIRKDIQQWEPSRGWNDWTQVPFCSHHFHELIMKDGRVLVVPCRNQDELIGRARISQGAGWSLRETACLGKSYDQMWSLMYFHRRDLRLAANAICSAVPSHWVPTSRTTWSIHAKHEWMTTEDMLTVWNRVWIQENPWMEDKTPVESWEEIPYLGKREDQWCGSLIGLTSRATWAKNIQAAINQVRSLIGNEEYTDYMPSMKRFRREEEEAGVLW

[3] = molecular target: T2, Bifunctional protein GlmU (Mycobacterium tuberculosis, UniProt P9WMN3); assay: Inhibitors of Mycobacterial Glucosamine-1-phosphate acetyl transferase (GlmU). Secondary screen.; set-up: species or system Mycobacterium tuberculosis H37Rv
T2 sequence (P9WMN3 whole entry): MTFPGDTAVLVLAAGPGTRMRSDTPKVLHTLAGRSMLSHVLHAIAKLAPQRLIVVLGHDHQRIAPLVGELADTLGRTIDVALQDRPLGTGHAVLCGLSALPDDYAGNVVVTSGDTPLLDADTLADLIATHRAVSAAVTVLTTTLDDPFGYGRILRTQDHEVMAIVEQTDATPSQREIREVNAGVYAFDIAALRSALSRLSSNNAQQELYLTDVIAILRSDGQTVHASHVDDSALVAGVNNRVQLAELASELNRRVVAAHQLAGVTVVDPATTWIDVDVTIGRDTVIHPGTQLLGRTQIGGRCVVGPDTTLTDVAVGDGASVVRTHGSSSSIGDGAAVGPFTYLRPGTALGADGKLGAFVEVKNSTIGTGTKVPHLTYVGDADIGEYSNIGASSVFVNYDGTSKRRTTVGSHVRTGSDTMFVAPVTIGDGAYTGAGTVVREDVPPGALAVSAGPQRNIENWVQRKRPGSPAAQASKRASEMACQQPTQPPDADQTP

[4] = molecular target: Large T antigen (Simian virus 40, UniProt P03070); assay type: functional, Betapolyomavirus macacae;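 further: Confirmatory-stage PubChem screen for compounds that inhibit SV40 T antigen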
[5] = molecular target: T3, Mucolipin-3 (Homo sapiens, UniProt Q8TDD5); assay: Dose response cell-based high-throughput screening assay for agonists of the transient receptor potential channel ML3 (TRPML3). [Related pubchem assays: 1526, 1424, 1448 ]; assay type: functional
T3 sequence (Q8TDD5 whole entry): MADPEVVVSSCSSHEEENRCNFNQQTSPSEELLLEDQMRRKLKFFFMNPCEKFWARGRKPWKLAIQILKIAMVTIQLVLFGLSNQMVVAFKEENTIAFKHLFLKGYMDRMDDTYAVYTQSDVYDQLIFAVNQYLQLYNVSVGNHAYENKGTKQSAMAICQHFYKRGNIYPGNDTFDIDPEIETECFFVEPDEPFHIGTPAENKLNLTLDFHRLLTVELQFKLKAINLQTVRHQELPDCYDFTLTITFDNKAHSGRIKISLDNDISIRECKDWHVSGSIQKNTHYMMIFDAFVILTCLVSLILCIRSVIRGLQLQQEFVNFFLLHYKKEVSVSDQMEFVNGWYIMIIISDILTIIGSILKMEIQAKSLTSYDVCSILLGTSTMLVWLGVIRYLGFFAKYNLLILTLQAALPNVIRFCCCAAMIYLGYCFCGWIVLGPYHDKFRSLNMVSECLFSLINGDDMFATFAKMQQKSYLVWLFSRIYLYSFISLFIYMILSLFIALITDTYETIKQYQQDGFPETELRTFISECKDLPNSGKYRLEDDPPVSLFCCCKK

[6] = molecular target: Ion channel NompC (Danio rerio, UniProt Q7T1G6); assay: Fluorescence counterscreen assay for TRPML3 agonists: dose response cell-based high-throughput screening assay to identify agonists of the transient receptor potential channel N1 (TRPN1). [Related pubchem assays: 1526, 1424, 1448 ]; assay type: functional
[7] = molecular target: Eukaryotic translation initiation factor 4H (Homo sapiens, UniProt Q15056); assay: inhibitors of translation initiation factor eIF4H – SAR follow-up (AID 435011); assay type: functional
[8] = molecular target: T4, Polyadenylate-binding protein 1 (Homo sapiens, UniProt P11940); assay: PABP inhibition in translation initiation, SAR follow-up (AID 435018); assay type: functional
T4 sequence (P11940 whole entry): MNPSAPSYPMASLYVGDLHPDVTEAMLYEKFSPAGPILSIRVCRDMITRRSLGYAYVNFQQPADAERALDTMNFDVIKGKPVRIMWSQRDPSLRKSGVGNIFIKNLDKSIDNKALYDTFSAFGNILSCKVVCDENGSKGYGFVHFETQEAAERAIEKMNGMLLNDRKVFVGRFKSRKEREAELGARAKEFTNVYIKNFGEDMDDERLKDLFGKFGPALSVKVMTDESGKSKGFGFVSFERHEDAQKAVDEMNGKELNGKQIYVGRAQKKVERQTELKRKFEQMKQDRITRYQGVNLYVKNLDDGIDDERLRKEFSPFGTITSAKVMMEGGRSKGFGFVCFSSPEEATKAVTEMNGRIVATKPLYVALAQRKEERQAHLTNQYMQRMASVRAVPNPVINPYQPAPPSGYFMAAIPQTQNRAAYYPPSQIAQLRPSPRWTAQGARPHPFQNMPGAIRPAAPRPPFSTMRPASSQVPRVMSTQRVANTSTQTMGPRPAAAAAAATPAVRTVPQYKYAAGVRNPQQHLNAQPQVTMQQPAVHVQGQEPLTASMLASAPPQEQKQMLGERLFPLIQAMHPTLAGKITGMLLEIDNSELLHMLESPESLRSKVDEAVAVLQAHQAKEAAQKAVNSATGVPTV

[9] = molecular target: T5, Fatty acid synthase (Homo sapiens, UniProt P49327); assay: inhibition of human FAS-TE enzyme activity – biochemical, endpoint fluorescence intensity, uHTS hits, dose response (AID 624327); assay type: functional;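 further: fluorescence from hydrolysis of an O-methyl fluorescein acyl ester substrate by the enzyme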
T5 sequence (P49327 whole entry): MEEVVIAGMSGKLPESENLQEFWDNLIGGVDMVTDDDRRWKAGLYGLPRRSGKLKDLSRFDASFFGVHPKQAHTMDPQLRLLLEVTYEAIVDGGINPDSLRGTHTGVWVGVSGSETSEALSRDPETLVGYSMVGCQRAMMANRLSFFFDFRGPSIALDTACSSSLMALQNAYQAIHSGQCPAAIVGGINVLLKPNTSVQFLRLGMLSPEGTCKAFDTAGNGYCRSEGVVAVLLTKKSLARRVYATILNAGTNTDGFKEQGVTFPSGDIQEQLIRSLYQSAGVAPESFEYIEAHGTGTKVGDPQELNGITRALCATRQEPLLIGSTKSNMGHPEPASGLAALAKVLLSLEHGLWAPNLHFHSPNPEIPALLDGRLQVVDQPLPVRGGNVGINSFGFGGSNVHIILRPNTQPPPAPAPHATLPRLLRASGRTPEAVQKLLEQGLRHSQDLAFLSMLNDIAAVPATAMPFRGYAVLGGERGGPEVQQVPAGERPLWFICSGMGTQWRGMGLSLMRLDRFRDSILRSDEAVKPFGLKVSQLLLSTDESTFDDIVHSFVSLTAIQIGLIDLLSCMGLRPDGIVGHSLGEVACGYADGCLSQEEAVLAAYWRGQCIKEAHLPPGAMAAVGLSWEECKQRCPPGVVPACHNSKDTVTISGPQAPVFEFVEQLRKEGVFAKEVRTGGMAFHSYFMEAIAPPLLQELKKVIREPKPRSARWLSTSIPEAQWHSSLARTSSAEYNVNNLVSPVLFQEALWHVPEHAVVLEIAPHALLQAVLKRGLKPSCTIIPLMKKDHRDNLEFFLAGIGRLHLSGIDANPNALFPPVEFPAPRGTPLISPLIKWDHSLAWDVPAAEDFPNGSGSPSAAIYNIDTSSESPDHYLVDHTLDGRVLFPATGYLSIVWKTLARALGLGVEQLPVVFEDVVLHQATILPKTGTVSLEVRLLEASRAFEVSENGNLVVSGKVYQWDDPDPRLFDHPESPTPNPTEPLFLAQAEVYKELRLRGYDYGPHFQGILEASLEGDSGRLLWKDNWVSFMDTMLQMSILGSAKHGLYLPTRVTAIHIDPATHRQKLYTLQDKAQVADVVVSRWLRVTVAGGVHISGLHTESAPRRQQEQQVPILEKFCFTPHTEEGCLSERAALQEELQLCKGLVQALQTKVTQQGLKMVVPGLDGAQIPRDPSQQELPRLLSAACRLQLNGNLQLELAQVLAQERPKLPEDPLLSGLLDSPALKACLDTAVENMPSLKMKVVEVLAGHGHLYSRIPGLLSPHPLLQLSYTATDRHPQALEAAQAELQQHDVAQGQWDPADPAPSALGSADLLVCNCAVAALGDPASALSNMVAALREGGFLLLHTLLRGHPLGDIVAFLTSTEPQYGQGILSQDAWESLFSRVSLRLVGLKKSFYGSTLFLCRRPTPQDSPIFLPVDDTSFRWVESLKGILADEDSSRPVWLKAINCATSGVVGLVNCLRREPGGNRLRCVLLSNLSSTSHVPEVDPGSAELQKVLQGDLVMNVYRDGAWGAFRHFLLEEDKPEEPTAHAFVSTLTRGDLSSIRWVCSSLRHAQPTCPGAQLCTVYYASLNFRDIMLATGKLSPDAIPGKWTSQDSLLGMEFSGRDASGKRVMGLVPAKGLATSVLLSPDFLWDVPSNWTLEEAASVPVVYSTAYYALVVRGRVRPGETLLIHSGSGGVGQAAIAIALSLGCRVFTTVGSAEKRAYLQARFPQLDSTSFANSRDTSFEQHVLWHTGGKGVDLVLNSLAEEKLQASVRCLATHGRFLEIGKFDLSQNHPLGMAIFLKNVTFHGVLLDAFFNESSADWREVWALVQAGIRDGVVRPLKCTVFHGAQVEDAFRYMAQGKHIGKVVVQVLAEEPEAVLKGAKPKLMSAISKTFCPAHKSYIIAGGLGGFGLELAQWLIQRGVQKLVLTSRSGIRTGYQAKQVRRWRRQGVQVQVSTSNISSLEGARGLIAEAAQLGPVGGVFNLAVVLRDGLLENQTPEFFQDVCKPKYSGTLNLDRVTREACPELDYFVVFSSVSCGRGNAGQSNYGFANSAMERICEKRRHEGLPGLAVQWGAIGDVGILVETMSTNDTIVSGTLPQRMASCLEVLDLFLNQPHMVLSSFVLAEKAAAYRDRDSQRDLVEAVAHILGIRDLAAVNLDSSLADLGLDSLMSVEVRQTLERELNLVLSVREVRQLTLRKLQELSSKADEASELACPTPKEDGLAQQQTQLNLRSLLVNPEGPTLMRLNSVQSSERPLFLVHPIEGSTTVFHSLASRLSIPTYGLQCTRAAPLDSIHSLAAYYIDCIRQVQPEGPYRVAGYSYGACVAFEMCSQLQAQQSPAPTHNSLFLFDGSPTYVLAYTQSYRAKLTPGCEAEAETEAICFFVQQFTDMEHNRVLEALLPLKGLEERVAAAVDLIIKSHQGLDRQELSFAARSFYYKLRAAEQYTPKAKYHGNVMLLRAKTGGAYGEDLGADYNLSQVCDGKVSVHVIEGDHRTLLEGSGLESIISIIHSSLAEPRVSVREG

[10] = molecular target: Paired box protein Pax-8 (Homo sapiens, UniProt Q06710); assay: PAX8 transcriptional activity inhibition in RMG-I – RMG-I cells, luciferase, cherry-pick, dose response (AID 687027); assay type: functional, cell-based;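 further: luciferase reporter driven by Pax8 target thyroperoxidase promoter measured by SteadyGlo luminescence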
Paired box protein Pax-8, sequence (Q06710 whole entry): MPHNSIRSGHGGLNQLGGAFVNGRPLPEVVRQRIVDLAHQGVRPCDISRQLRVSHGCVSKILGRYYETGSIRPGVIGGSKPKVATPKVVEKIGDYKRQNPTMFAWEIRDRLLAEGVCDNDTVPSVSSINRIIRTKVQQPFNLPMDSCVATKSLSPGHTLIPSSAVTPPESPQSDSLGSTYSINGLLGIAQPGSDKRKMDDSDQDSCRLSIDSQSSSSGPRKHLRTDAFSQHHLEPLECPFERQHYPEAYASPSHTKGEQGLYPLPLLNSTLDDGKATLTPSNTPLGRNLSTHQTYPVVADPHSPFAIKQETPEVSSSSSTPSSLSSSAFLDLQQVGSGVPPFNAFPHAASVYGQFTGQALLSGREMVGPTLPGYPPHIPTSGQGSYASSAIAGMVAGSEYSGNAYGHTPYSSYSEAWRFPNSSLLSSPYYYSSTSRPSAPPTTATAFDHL

[11] = molecular target: T6, Hexokinase HKDC1 (Homo sapiens, UniProt Q2TB90); assay: inhibition of HKDC1 glucose phosphorylation – biochemical, W721R variant, dose response (AID 504729); assay type: functional
T6 sequence (Q2TB90 whole entry): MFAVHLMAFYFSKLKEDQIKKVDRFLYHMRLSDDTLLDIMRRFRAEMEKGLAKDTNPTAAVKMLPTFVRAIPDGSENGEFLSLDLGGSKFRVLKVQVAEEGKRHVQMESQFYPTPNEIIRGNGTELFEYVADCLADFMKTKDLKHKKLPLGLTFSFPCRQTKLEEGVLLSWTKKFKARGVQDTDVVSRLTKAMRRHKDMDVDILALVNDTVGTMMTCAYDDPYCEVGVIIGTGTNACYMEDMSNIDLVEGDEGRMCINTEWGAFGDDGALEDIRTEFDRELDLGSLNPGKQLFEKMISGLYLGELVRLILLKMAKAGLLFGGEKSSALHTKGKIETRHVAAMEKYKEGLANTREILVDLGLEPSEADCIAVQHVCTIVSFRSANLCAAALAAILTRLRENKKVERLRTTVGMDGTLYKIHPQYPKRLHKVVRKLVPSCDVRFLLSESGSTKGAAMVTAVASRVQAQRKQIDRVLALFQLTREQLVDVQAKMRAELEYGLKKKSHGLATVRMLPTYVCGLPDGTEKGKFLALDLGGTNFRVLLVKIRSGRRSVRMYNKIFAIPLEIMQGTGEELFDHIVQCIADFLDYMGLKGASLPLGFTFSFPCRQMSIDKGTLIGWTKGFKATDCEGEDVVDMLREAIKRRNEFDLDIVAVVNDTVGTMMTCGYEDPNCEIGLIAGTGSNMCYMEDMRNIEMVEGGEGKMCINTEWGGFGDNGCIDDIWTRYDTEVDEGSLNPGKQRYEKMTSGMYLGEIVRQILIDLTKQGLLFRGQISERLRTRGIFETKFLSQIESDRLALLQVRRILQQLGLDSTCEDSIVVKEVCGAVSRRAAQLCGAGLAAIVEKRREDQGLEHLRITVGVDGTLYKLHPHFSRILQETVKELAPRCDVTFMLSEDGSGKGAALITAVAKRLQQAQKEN

[12] = molecular target: T5, Fatty acid synthase; assay: inhibition of human FAS-TE enzyme activity – biochemical, kinetic fluorescence intensity, dose response (AID 624326); assay type: functional;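 further: rate of fluorescence rise from hydrolysis of a fluorogenic O-methyl fluorescein ester substrate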
[13] = test system: Vero; assay: viability of Vero cells under compound – cytotoxicity control for flavivirus capping enzyme inhibitors (AID 588742); assay type: functional; conditions: Chlorocebus sabaeus
[14] = molecular target: Beta Lactamase (Pseudomonas aeruginosa, UniProt Q932Y6); assay: BLA reporter interference, concentration series – BLA reporter cells, FRET fluorescence, artefact control for TLR9-MyD88 binding inhibitor project, dose response (AID 588341); assay type: cell-based;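 further: cell based assay in CHO-K1 cells stably expressing beta-lactamase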
Beta Lactamase, sequence (Q932Y6 whole entry): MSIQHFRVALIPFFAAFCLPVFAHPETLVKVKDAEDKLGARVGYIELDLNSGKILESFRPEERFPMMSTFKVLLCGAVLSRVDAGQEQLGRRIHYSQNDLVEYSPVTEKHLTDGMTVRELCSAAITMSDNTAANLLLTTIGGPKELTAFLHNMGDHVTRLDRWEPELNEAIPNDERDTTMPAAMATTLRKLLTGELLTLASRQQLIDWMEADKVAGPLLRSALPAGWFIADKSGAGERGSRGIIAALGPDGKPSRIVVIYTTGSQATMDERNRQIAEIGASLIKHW

[15] = molecular target: T4, Polyadenylate-binding protein 1; assay: MLLE binding blockers, Cy5 peptide tracer – biochemical, fluorescence polarization, Cy5-PAM2 peptide, secondary, miRNA deadenylation inhibitor project, dose response (AID 602260); assay type: functional; conditions: read-out: IC50_Mean
[16] = molecular target: T7, Tyrosyl-DNA phosphodiesterase 2 (Homo sapiens, UniProt O95551); assay: potency against TDP2 phosphodiesterase activity – biochemical, epi absorbance, IC50, dose response (AID 743297)
T7 sequence (O95551 whole entry): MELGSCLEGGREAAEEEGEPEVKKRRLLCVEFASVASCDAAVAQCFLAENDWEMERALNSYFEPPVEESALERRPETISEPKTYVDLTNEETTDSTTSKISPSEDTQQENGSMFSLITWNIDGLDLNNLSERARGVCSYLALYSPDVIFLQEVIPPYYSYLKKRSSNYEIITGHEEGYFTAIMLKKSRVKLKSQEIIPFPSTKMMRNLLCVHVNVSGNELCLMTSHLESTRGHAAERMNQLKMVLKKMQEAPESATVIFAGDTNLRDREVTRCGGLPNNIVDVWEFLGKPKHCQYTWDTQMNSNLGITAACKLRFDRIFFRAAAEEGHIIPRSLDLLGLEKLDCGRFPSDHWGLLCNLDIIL

[17] = molecular target: Heat shock protein HSP 90-alpha (Homo sapiens, UniProt P07900); assay type: functional, organism-based
[18] = molecular target: T4, Polyadenylate-binding protein 1; assay: MLLE domain peptide-binding blockers, IC50 – biochemical, fluorescence polarization, FITC-PAM2 peptide, dose response (AID 602259); assay type: functional; conditions: read-out: IC50_Mean
[19] = general cell-killing toxicity readout – plate reader, dry powder samples, cytotoxicity control for PAX8 inhibitor project, dose response (AID 743021); assay type: functional, cell-based
[20] = test system: CHO; assay: CHO cell viability loss, potency – luminescence, cytotoxicity control for TLR9-MyD88 binding inhibitor project, dose response (AID 588339); assay type: functional, cell-based, hamster; conditions: Cricetulus griseus;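 further: CHO cells stably coexpressing TLR9 and MyD88 fusions from primary screen; compound exposure lasted 48 hours before viability readout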
[21] = viability loss in THP-1 monocytes – THP-1 cells, cytotoxicity control for Vif-APOBEC3G degradation inhibitor project, dose response (AID 1117359); assay type: functional; conditions: THP-1
[22] = M. tuberculosis H37Rv growth inhibitors, H37Rv strain (AID 1626); assay type: functional

In the case of `O=C1NN(c2ccccc2)C(=O)/C1=C/c1ccc(-c2ccc(Cl)c(C(=O)O)c2)o1`, the IC50 [1] was 4.07 µM (active), the IC50 [2] was 32.2 µM (active) and the IC50 [3] was 80.4 µM (active). For the same compound, the IC50 [4] was 17.1 µM (active).

In the case of `O=S(=O)(NC1CCCCCC1)c1cccc2cccnc12`, the EC50 [5] was 3.4 µM (active) and the EC50 [6] was > 29.9 µM (not active).

In the case of `COc1cc(/C=N/NC(=O)c2ccccc2)ccc1OCC(=O)Nc1ccc([N+](=O)[O-])cc1`, the IC50 [7] was 2.74 µM (active) and the IC50 [8] was 49.5 µM (active).

With `CCCC(=O)NC1=C(Cl)C(=O)c2ccccc2C1=O` the IC50 [9] was 37.7 µM (inactive), the AC50 [10] was 2.54 µM (active) and the IC50 [11] was 3.93 µM (active). The IC50 [12] was 12.7 µM (active), the IC50 [2] was 14.5 µM (active) and the CC50 [13] was 27.4 µM (active). The IC50 [14] was 6.78 µM (active), the IC50 [15] was > 66 µM (inactive) and the IC50 [16] was 11.8 µM (inactive). The AC50 [17] was < 0.195 µM (active), the IC50 [18] was > 66 µM (inactive) and the AC50 [19] was 28.3 µM (active). For the same compound, the IC50 [20] was 0.891 µM (active) and the CC50 [21] was 3.81 µM (active).

For `Cc1sc(N)nc1-c1ccccc1`, the IC50 [22] was > 100 µM (active).

In the case of `O/N=C/c1ccc2ccccc2c1`, the IC50 [22] was > 100 µM (active).

Reference: ChEMBL document CHEMBL1201862, “PubChem BioAssay data set” (2004)
